# “Also recorded” adds a separate entry of the source.
# Experiments:
# Format in all cases: cell-based, human
# [1] = system: GFP-RFP-LC3-II puncta in SH-SY5Y cells; test: Tandem fluorescent protein quenching assay (RFP-GFP-LC3); details: transfected SH-SY5Y cells, AKNS-2 10 μM + Baf 100 nM
# Procedure: SH-SY5Y cells were cultured in a 24-well plate at a density of 8×10^4 cells/well on a glass cover slip. Transfection was performed in accordance with guidelines of the autophagy tandem RFP-GFP-LC3B kit. After culturing the cells for 24 hours, the cells were treated with an LC3B reagent. After the transfected cells were incubated for 24 hours, 50 nM Wart or 100 nM Baf was administered thereto, and then AKNS-2 (10 μM) was added thereto. The cells were immobilized with 4% paraformaldehyde and permeabilized with 0.1% Triton X100. Nuclei thereof were stained with 4,6-diamidino-2-phenylindole (DAPI, 25 μg/mL). Fluorescent signals were detected using a confocal microscope (Leica, Solms, Germany).
# SH-SY5Y cells = test: MTT assay to measure cell viability
# Procedure: Cell viability was detected using an MTT assay kit (Z-Cytox). Briefly, the SH-SY5Y cells were seeded on a 96-well plate at a density of 2×10^4 cells/well with 100 μL of a culture medium. After 24 hours, the SH-SY5Y cells were treated with AKNS-2 and/or MPP^+ having desired concentrations to identify cytotoxicity of AKNS-2 and MPP^+. After 24 hours, 10 μL of the MTT reagent was added to each well of the 96-well plate including the cells. Absorbance was measured at 450 nm using a microplate spectrophotometer (BioTek, Vt., USA). […] The next day, absorbance was measured at 1 hour after adding the MTT reagent thereto.
# [2] = system: autophagy-related protein markers (LC3-II, p62, p-AMPK, p-Erk, p-ULK, p-mTOR) in SH-SY5Y cells; test: Western blot of autophagy-related protein markers in SH-SY5Y cells
# Procedure: (§1) Human neuroblastoma (SH-SY5Y) cells were purchased from the American Type Culture Collection (Manassas, Va., USA) and cultured in DMEM supplemented with 10% heat-inactivated FBS and 1% penicillin/streptomycin. The SH-SY5Y cells were cultured at 37° C. in a humid atmosphere containing 5% CO2. […] The SH-SY5Y cells were transfected with AMPK siRNA and then administered with AKNS-2 at 36 hours after siRNA transfection. […] After 24 hours from treatment with the samples, the SH-SY5Y cells were recovered and used for subsequent analysis. At 24 hours after drug treatment, the culture medium was removed from the 6-well plate, and the cells were gently washed once with cold saline. Subsequently, 1 mL of cold saline was added to each well, and cells attached to the bottom were floated by rubbing the bottom with a 1 mL pipette. The suspension was collected in a 1.5 mL tube and centrifuged at 4° C. at 13000×g for 5 minutes. After removing a supernatant, 50 μL of a RIPA lysis buffer including a protease inhibitor cocktail (Roche, Mannheim, Germany) and purchased from Cell Signaling Technology (Danvers, Mass., USA) was added to the cell pellet. After shaking the mixture at 4° C. for 30 minutes, the obtained cells were centrifuged at 4° C. at 13000×g for 20 minutes. A supernatant was collected therefrom, and a concentration of proteins was measured using a standard curve constructed using BSA by the Bradford method. Then, the supernatant was diluted with a loading buffer and heated at 99° C. for 5 minutes. Resultant cells were used in a subsequent western blot analysis. Protein markers contained in lysates of the SH-SY5Y cells and brain tissue of the mice (SNpc and ST) were measured by western blot analysis. Briefly, after determining a concentration, a protein sample (20 μg) was separated by 8%, 10%, or 15% sodium dodecyl sulfate-polyacrylamide gel electrophoresis (SDS-PAGE). Then, proteins separated on the gel were transferred to a polyvinylidene fluoride (PVDF) membrane for 45 minutes using a Trans-Blot Turbo Transfer System (Bio-Rad, USA). […] The membrane was further incubated with monoclonal primary antibodies derived from rabbits (anti-GAPDH, anti-AMPK, anti-p-AMPK, anti-ULK, anti-p-ULK555, anti-Erk, anti-p-Erk, anti-mTOR, anti-p-mTOR, anti-LC3B, anti-TH, and anti-α-synuclein antibodies). The primary antibodies were diluted in a blocking buffer at a ratio of 1:1000 and incubated overnight at 4° C. On the second day, the membrane was washed with TBST three times (10 minutes each) and incubated at room temperature in a horseradish peroxidase-conjugated goat anti-rabbit IgG secondary antibody (diluted in a blocking buffer at a ratio of 1:2000). After incubating in the secondary antibody for 1 hour, the membrane was washed for 30 minutes. The protein blots on the membrane were developed using an ECL detection kit and visualized using an LAS-4000 mini system (Fujifilm, Japan). The intensity of the protein blots was quantified using Multi Gauge software (Fujifilm, Japan).
# [3] = system: LC3, p62, TH and α-synuclein in SH-SY5Y cells; test: Western blot of LC3, p62, TH and α-synuclein in MPP^+-treated SH-SY5Y cells (in vitro PD model)
# Procedure: as §1
# [4] = 3-MA 5 mM 30 minutes before AKNS-2 10 μM
# [5] = 10 μM U0126 30 minutes before AKNS-2 (5 μM and 10 μM)
compound,measurement,setting,value
"CO/C1=C\C(C)=C\[C@@H](C)[C@@H](O)[C@@H](C)C/C(C)=C/C=C/[C@H](OC)[C@@H]([C@@H](C)[C@@H](O)[C@H](C)[C@@]2(O)C[C@@H](O)[C@H](C)[C@@H](C(C)C)O2)OC1=O [Baf, bafilomycin A1]",AKNS-2-enhanced accumulation of LC3-II puncta with bafilomycin A1,[1],increased green fluorescence and decreased red fluorescence
same,AKNS-2-enhanced accumulation of LC3-II puncta with bafilomycin A1,[1]; listed as bafilomycin A1,AKNS-2-induced autophagy is inhibited
"C[n+]1ccc(-c2ccccc2)cc1.[I-] [MPP^+, 1-methyl-4-phenylpyridinium (MPP^+) iodide, reference compound]",cell viability (MTT),"SH-SY5Y cells; MPP^+ alone, 2 mM",significantly decreased cell viability
"Cn1cnc(N)c2ncnc1-2 [Compound 3-MA, 3-methyladenine, reference compound]",AKNS-2-decreased p62 expression in presence of 3-MA,[2]; [4],increases p62 expression; also recorded: remarkably blocked the inhibitory effects of AKNS-2 on the expression level of p62
same,AKNS-2-up-regulated LC3-II expression in presence of 3-MA,[2]; [4],decreases LC3-II expression; also recorded: the increased expression was significantly decreased
same,AKNS-2 effect on TH expression in presence of 3-MA,[3]; 3-MA + AKNS-2 + MPP^+,advantageous effects of AKNS-2 were canceled out
same,expression of LC3-II with 3-MA,[3]; 3-MA vs group co-administered with AKNS-2 and MPP^+,significantly inhibited the expression of LC3-II
"N#CC(=C(/N)Sc1ccccc1N)/C(C#N)=C(\N)Sc1ccccc1N [Compound U0126, reference compound]",AKNS-2-induced LC3-II expression in presence of U0126,[2]; [5],a significant decrease was observed in the expression of LC3-II; also recorded: blocked the effects of AKNS-2 (5 μM and 10 μM) on increasing the expression of LC3-II
same,AKNS-2-inhibited p-mTOR expression in presence of U0126,[2]; [5],considerably restored
same,AKNS-2-increased p-ULK expression in presence of U0126,[2]; 10 μM U0126 + AKNS-2 10 μM,canceled out the effects of AKNS-2 (10 μM) on an increase in expression of p-ULK
same,protective effect of AKNS-2 on cell viability in presence of U0126,SH-SY5Y cells; 10 μM U0126 + AKNS-2 (5 μM and 10 μM) + 2 mM MPP^+,cancels out protective effects of AKNS-2 on cell viability; also recorded: such enhancement was canceled out
same,AKNS-2 effect on α-synuclein in presence of U0126,[3]; 10 μM U0126 + AKNS-2 + 2 mM MPP^+,the protective effects were blocked
same,AKNS-2 effect on TH expression in presence of U0126,[3]; 10 μM U0126 before AKNS-2 and 2 mM MPP^+,the effects of AKNS-2 on increasing the expression of TH were inhibited
